From patent publication US12410220B2, “Modulation of mammalian cell lineage by synthetic immodulins” (priority 2021, dated 2025)
Where two headings read alike, the source gives them in different places. Marks after values point to notes of the source that are not given here. Each block holds one molecule with its values, some of them ahead of it. Ends that are not written are not given here. Peptide text beside a SMILES is read from it. * marks the point of attachment. RG108 = O=C1c2ccccc2C(=O)N1[C@@H](Cc1c[nH]c2ccccc12)C(=O)*

How the values were obtained:
[1] = tested on: A375 cells; experiment: A375 cell viability (CellTiterGlo); type: cell-based; conditions: 72 hours
Procedure: Immune modulation functions of immodulin peptides have great potential untility in the field of cancer. A375 cell line was obtained from American Type Culture Collection (ATCC). They were grown in a T-75 flask in DMEM Medium containing 10% fetal bovine serum and penicillin-streptomycin at 37° C. in a humidified, 5% CO2 incubator. Cells (100 µl, 2,000 cells/well) were plated in a 96-well plate and incubated overnight at 37° C. in a humidified, 5% CO2 incubator. Next day, 10 µl/well of compounds were added (quadruplicate wells). After 72 hour incubation with the compound, cell viability was measured in a luminometer after the addition of 100 IL/well CellTiterGlo reagent (Promega Inc, Madison, WI) as recommended by the manufacturer. Anti-cancer activity of immodulin peptides on A375 cells: A 96-well plate was seeded with 2,000 A375 cells per well in DMEM medium containing 10% FBS and PenStrep. After 24 hrs at 37 deg C., compounds and peptides were added (each treatment done in quadruplicate). After a further 72 hours incubation, 100 μL/well of CTG assay reagent purchased from Promega Inc. (Madison, WI) was added. Plate was read after 10 minutes, as recommended by the manufacturer. Peptides were added at 2 uM. The results of this experiment are shown below, expressed as percent survival of A375 cells.

[2] = Ferric iron-binding assay of biotinylated immodulin peptides; conditions: N-terminally biotinylated peptide, 400 ng per well, 60 min room temperature; immX3AVD = 100
Excerpt: N-terminally biotinylated versions of the peptides listed below were used in ferric iron-binding assays involving either an Alexa488-labeled streptavidin protocol (Binding Assay 1) or FITC-NTA assay (Binding Assay 2). Fluorescence was standardized to binding with immX3AVD control peptide (100) and the average of multiple experiments using both protocols is shown. P values are shown relative to the control immX3AVD peptide (**<0.05). D-amino acid residues are underlined in the sequences and the extension tripeptide of immX peptides is shown in bold font. Binding Assay 1 was done as follows: NTA coated 96-well plates (G-Biosciences, St. Louis, MO) were charged with ferric chloride and contacted with equimolar biotinylated peptide: streptavidin-A488 complex (400 ng peptide per well) for 60 min at room temperature, washed with phosphate-buffered saline (PBS) and read at 525 nm in a fluorescence counter. Binding Assay 2 was done as follows: Streptavidin coated 96-well plates (G-Biosciences, St. Louis, MO) were contacted with 400 ng peptide per well in PBS buffer for 60 minutes at room temperature, washed in PBS, then contacted with FITC-NTA (TRC, Toronto, Canada) complexed with equimolar ferric chloride (10× molar equivalent per well) for 60 min at room temperature, washed with PBS and read at 525 nm in a fluorescence counter.

[3] = tested on: THP1-Dual monocytes; experiment: THP1-Dual monocyte differentiation assay, PMA protocol; type: cell-based, human; conditions: peptide 330 nM, 24 hours; for CD169+ (AU): relative to immX3AVD = 100
Procedure: (§1) Mammalian cell differentiation assays using THP1-Dual monocytes reporter cell line (Invivogen Inc, San Diego, CA) seeded at 2×10e5 cells per well in 96-well plates and cultured at 37 degrees C. in RPMI-1640 growth medium plus 10% fetal bovine serum and 1% penicillin/streptomycin, then treated for 24 hours with either 100 ng/ml Phorbol 12-myristate 13-acetate (PMA protocol; Cayman Chemical Company, Ann Arbor, MI) or a mixture of IL-4 (100 ng/ml), GM-CSF (100 ng/ml), TNF-alpha (20 ng/ml) and ionomycin (200 ng/ml) (Cytokine protocol; Peprotech, Rocky Hill, NJ). Peptide (330 nM) was then added, and incubation continued for an additional 24 hours. Culture supernatants were then assayed for CCL22. Plates with adherent cells were washed with PBS and assayed for immunoreactivity of surface markers such as CD169, Clec9a, Clec12a or MHCII using fuorescent tag- or biotin-labeled anti-human antibodies purchased from Miltenyi Biotec (Auburn, CA) and a relevant secondary detection reagent, or by fluorescence counts.

[4] = tested on: rat scald-endotoxemia model; experiment: Experiment 5B rat scald-endotoxemia model; type: in vivo, Sprague Dawley rats; conditions: for Change in body weight (Pct vs Day 1): Day 5; for Respiratory distress (Gp. “S” = 100): Day 8, 4 hours after LPS; for Wet/dry lung weight (corrected for body weight): Day 8, after LPS 2.5 mg/kg ip
Procedure: Experiment 5B. This study explores the effect of immX extensions on sV-nephrilin (SEQ ID NO:31) vs V-nephrilin, as well as in a longer peptide also containing the immX extension (Traumatin-3N1A: SEQ ID NO:35) on in vivo efficacy in a rat scald-endotoxemia model. Animals were treated with peptides using a widely used protocol previously described (see, for example, U.S. Pat. No. 10,369,191). Adult Sprague Dawley rats of both sexes (250-300 gm, Charles River Laboratories, Wilmington, MA, USA) were injected with peptide plus equimolar ferric iron once daily by subcutaneous bolus injection, days 1-7; Treatment group sizes were (n=6): group S=sham-treated; group B=burn+vehicle; group V=burn+1 mg/kg V-nephrilin (V); group sV=burn+1 mg/kg sV-nephrilin (immX3N1sV); group T=burn+1 mg/kg Traumatin-3N1A. The first dose was administered after completion of the scald procedure. Injection volume was 400 uL. Control animals received the same volume of vehicle. On Day 8, animals received a single intraperitoneal injection of 2.5 mg/kg lipopolysaccharide (LPS; Sigma Cat #L-2880) and animals were then monitored by oximeter (MouseOx, Starr Life Sciences) for 4 hours, when respiratory distress (breath distension*breaths/min) was assessed relative to baseline. This was followed by sacrifice and tissue collection as in the published protocol, except that bronchoalveolar lavage (BAL) was collected and cells were recovered from BAL by centrifugation. These cells were stained with fluorescently-labeled antibodies for flow cytometry in order to ascertain granulocyte counts, as shown below. Results of the peptide comparison are presented in the table below. *p<0.05 vs “B” control. #p<0.05 vs “V” group.

[5] = tested on: Pancreatic protease Type I; experiment: Experiment 5A peptide stability to protease degradation; type: in vitro ADME; conditions: 20 minutes at 37 degrees C, read-out: percentage of surviving peptide after protease treatment
Procedure: Duplicate wells per dilution point in a 96-well NTA-coated plate (G-Biosciences, St. Louis, MO) charged with ferric chloride were adsorbed with 2 ug imm3N1V (V-nephrilin) or immX3N1 (sV-nephrilin) peptide per well for 30 min at room temperature, washed, then incubated with 100 ul/well of 8 or 2 μg/ml protease (Sigma Catalog #P4630, Pancreatic protease Type I) for 20 minutes at 37 degrees C. Plates were washed with PBS buffer and the remaining peptide bound was measured using an in-house calibrated anti-immodulin ELISA (rabbit polyclonal #2501). The percentages of surviving peptide after 8 or 2 μg/ml protease treatment were, respectively: V-nephrilin (imm3N1V): 57.6±2.3% and 79.0±0.7%; sV-nephrilin (immX3N1): 75.1±2.8% and 90.4±3.4% (p<0.001 at both concentrations). Thus, the immX tripeptide extension at the C-terminus using D-amino acids improved peptide stability to protease degradation.

[6] = tested on: THP1-Dual monocytes; experiment: THP1-Dual differentiation assay, immX3 peptide plus helper or inhibitor molecule; type: cell-based, human; conditions: immX3 peptide (330 nM) in all samples plus helper at the concentration given; immX3 with buffer = 100.0
Procedure: as §1
The THP1-Dual cell differentiation assay was carried out as described above in Example 2, using immX3 peptide (330 nM) in all samples plus the indicated helper or inhibitor molecule. AU=arbitrary ELISA units. **p<0.01.

[7] = Experiment 4D binding to FITC-labelled hyaluronic acid; conditions: biotinylated peptide 1 ug/well; 1 ug FITC-labelled hyaluronic acid, 90 minutes
Procedure: (§2) Streptavidin-coated 96-well plates (G-Biosciences, St. Louis, MO) were pre-treated with biotinylated peptides [see Example 1 for key] at 1 ug/well, at room temperature for 60 minutes. The plate was washed with PBS buffer and then 1 ug FITC-labelled heparin or hyaluronic acid in 100 uL PBS buffer was added per well (all tests in quadruplicate). Incubation proceeded for 90 minutes at room temperature, followed by two PBS washes. The plate was read in a standard laboratory fluorometer (488/525 nm exitation/[…]) and the counts normalized for immX3 peptide binding=100. Values statistically above background are shown in bold font. **p<0.05 versus immX3AVD.

[8] = Experiment 4D binding to FITC-labelled heparin; conditions: biotinylated peptide 1 ug/well; 1 ug FITC-labelled heparin, 90 minutes
Procedure: as §2

[9] = tested on: THP1-Dual monocytes; experiment: THP1-Dual monocyte differentiation assay, cytokine protocol; type: cell-based, human; conditions: peptide 330 nM, 24 hours, relative to immX3AVD = 100
Procedure: as §1

[10] = Day 1, burn + 1 mg/kg peptide plus equimolar ferric iron, subcutaneous once daily
[11] = burn + 1 mg/kg peptide plus equimolar ferric iron, subcutaneous once daily
[12] = burn + 1 mg/kg peptide days 1-7
[13] = Day 8, after LPS, burn + 1 mg/kg peptide days 1-7

Molecule: (rg108)-KKGFYKKKQCRPSKGRKRGFCW (RG108-KKGFYKKKQCRPSKGRKRGFCW; cysteine pairing not given here) [imm3rg8, imm3 N-terminally conjugated with RG108]
percent survival of A375 cells, +RIG-I ag ([1]; peptide 2 uM plus RIG-I agonist 4 uM): 105.8%
percent survival of A375 cells, Buffer ([1]; peptide 2 uM, no RIG-I agonist): 89.9** percent

Ferric iron binding, fluorescence standardized to immX3AVD control peptide (100), Avg ± SD [2]: 97.5 ± 5.1
Molecule: KKGFYKKKQCRPSKGRKRGFCWRVD [immX3RVD]
CCL22 ([3]; culture supernatant): 272.5 ± 35.7 pg/mL
CD169+ (AU) [3]: 88.1 ± 4.2 AU

Molecule: CC(C)C[C@H](NC(=O)[C@H](Cc1ccc(O)cc1)NC(=O)[C@H](CC(=O)O)NC(=O)[C@H](CCC(=O)O)NC(=O)[C@@H](NC(=O)[C@@H](NC(=O)CNC(=O)[C@@H](N)CCCNC(=N)N)C(C)C)[C@@H](C)O)C(=O)N[C@@H](CCCNC(=N)N)C(=O)N[C@@H](CC(C)C)C(=O)N[C@@H](CCC(=O)O)C(=O)N[C@H](C(=O)N[C@@H](CC(C)C)C(=O)N[C@H](C(=O)N[C@@H](CCC(N)=O)C(=O)N[C@@H](CCCCN)C(=O)N[C@H](C(=O)N[C@H](C(=O)N[C@@H](CO)C(=O)N[C@@H](CCCCN)C(=O)NCC(=O)N[C@@H](Cc1ccccc1)C(=O)N[C@@H](Cc1ccc(O)cc1)C(=O)N[C@@H](CCCCN)C(=O)N[C@@H](CCCCN)C(=O)N[C@@H](CCCCN)C(=O)N[C@@H](CCC(N)=O)C(=O)N[C@@H](CS)C(=O)N[C@@H](CCCNC(=N)N)C(=O)N1CCC[C@H]1C(=O)N[C@@H](CO)C(=O)N[C@@H](CCCCN)C(=O)NCC(=O)N[C@@H](CCCNC(=N)N)C(=O)N[C@@H](CCCCN)C(=O)N[C@@H](CCCNC(=N)N)C(=O)NCC(=O)N[C@@H](Cc1ccccc1)C(=O)N[C@@H](CS)C(=O)N[C@@H](Cc1c[nH]c2ccccc12)C(=O)O)C(C)C)C(C)C)C(C)C)[C@@H](C)O [V-nephrilin] (H-RGVTEDYLRLETLVQKVVSKGFYKKKQCRPSKGRKRGFCW-OH; N-terminus and C-terminus assumed)
Plasma IL-6 [4, 10]: 31.4 ± 19 pg/mL
Plasma albumin mg/ml (24 hr IR) [4, 10]: 7.9 ± 2.1 mg/mL
Change in body weight (Pct vs Day 1) [4, 11]: −9.8 ± 2.9 Pct
Respiratory distress (Gp. “S” = 100) [4, 12]: 349 ± 95
Wet/dry lung weight (corrected for body weight) [4, 12]: 7.97 ± 0.76
BAL His48+ granulocytes (FITC units) [4, 13]: 28.9 ± 3.1* FITC units
BAL fluid IL1-beta [4, 13]: 112.8 ± 9.4 pg/mL
Plasma OHDG [4, 13]: 1.44 ± 1.0 ng/mL
Plasma creatinine [4, 13]: 0.91 ± 0.3 mg/dL
remaining at 20 min ([5]; 2 μg/ml protease): 79 ± 0.7%
remaining at 20 min ([5]; 8 μg/ml protease): 57.6 ± 2.3%

Molecule: RGVTEDYLRLETLVQKVVSKGFYKKKQCRPSKGRKRGFCWAVD (cysteines drawn unpaired) [sV-nephrilin]
Plasma IL-6 (pg/ml) [4, 10]: 17.5 ± 9.3* pg/ml
Plasma albumin mg/ml (24 hr IR) [4, 10]: 7.4 ± 1.6* mg/ml
Change in body weight (Pct vs Day 1) [4, 11]: −5.1 ± 3.6* Pct
Respiratory distress (Gp. “S” = 100) [4, 12]: 203 ± 30*#
Wet/dry lung weight (corrected for body weight) [4, 12]: 7.07 ± 0.48*
BAL His48+ granulocytes (FITC units) [4, 13]: 26.8 ± 4.0* FITC units
BAL fluid IL1-beta (pg/ml) [4, 13]: 67.1 ± 16*# pg/ml
Plasma OHDG (ng/ml) [4, 13]: 1.31 ± 0.6* ng/ml
Plasma creatinine (mg/dL) [4, 13]: 0.73 ± 0.2* mg/dL
remaining at 20 min ([5]; 2 μg/ml protease): 90.4 ± 3.4%
remaining at 20 min ([5]; 8 μg/ml protease): 75.1 ± 2.8%

Molecule: Oc1c(C(Nc2nc3ccccc3s2)c2ccc(OC(F)F)cc2)ccc2cccnc12 (stereo not shown) [RIG-I agonist [b], reference compound]
CD169 (AU) [6]: 131.6 ± 4.6** AU
percent survival of A375 cells, RIG-I ag without peptide ([1]; RIG-I agonist 4 uM alone (No peptide)): 100.7%

Hyaluronate binding, counts normalized for immX3 peptide binding=100 [7]: 100.0 ± 22.8
Heparin binding, counts normalized for immX3 peptide binding=100 [8]: 100.0 ± 4.7
Ferric iron binding, fluorescence standardized to immX3AVD control peptide (100), Avg ± SD [2]: 100.0
Molecule: CC(C)[C@H](NC(=O)[C@H](C)NC(=O)[C@H](Cc1c[nH]c2ccccc12)NC(=O)[C@H](CS)NC(=O)[C@H](Cc1ccccc1)NC(=O)CNC(=O)[C@H](CCCNC(=N)N)NC(=O)[C@H](CCCCN)NC(=O)[C@H](CCCNC(=N)N)NC(=O)CNC(=O)[C@H](CCCCN)NC(=O)[C@H](CO)NC(=O)[C@@H]1CCCN1C(=O)[C@H](CCCNC(=N)N)NC(=O)[C@H](CS)NC(=O)[C@H](CCC(N)=O)NC(=O)[C@H](CCCCN)NC(=O)[C@H](CCCCN)NC(=O)[C@H](CCCCN)NC(=O)[C@H](Cc1ccc(O)cc1)NC(=O)[C@H](Cc1ccccc1)NC(=O)CNC(=O)[C@H](CCCCN)NC(=O)[C@@H](N)CCCCN)C(=O)N[C@@H](CC(=O)O)C(=O)O [immX3AVD] (H-KKGFYKKKQCRPSKGRKRGFCWAVD-OH; N-terminus and C-terminus assumed)
Clec12A(AU) [9]: 100 AU
CD169+ (AU) [3]: 100 AU
